According to US8389557B2, “Triazole derivatives useful as Axl inhibitors” (Rigel Pharmaceuticals, Inc., priority 2005, dated 2013):

Biological target: T1, Axl (Homo sapiens, UniProt P30530)
T1 construct: endogenous in cells; host or cells: HeLa cells
T1 sequence (P30530 26-894): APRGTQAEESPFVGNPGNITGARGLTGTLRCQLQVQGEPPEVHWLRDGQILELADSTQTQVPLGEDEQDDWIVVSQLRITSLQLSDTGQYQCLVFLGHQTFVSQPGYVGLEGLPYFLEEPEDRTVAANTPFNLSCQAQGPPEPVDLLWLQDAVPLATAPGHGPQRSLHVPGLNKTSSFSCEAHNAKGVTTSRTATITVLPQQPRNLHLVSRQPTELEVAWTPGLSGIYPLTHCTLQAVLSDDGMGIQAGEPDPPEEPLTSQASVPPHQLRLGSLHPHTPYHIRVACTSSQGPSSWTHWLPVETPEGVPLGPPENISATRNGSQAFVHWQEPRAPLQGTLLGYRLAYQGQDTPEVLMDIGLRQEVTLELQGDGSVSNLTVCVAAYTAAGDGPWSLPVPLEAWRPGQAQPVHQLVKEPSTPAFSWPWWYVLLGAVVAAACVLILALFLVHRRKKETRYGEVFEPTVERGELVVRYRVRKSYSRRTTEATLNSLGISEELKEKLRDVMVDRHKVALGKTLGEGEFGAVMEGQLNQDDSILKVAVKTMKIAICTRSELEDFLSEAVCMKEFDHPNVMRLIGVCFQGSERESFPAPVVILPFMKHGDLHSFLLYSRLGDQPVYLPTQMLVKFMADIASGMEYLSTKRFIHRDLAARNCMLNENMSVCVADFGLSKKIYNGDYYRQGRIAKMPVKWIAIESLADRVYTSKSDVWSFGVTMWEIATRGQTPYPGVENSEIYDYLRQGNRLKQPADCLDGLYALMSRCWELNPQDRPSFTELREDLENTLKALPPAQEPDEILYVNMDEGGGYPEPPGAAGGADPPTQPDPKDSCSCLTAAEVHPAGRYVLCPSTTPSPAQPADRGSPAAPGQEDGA
Experiment: Phospho-Akt in-cell Western assay (inhibition of Axl activity)
Assay type: cell-based
How it was run: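 HeLa cells on poly-L-lysine, starved 24 h in 0.5% FCS DMEM with Axl/Fc 500 ng/mL, pre-treated with compound 1 h at 37° C. Axl stimulated 5 min by anti-Axl/anti-mouse antibody cross-linking. Fixed cells probed with anti-phospho-Akt and HRP secondary, chemiluminescence read.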

[1] = inhibition of Axl activity, Table 1
[2] = Table 3, Hela cells, Axl antibody cross-linking stimulation, phospho-Akt chemiluminescence
[3] = Table 7, Hela cells, Axl antibody cross-linking stimulation, phospho-Akt chemiluminescence
[4] = Table 8, Hela cells, Axl antibody cross-linking stimulation, phospho-Akt chemiluminescence
[5] = Table 2, Hela cells, Axl antibody cross-linking stimulation, phospho-Akt chemiluminescence
[6] = inhibition of Axl activity, phospho-Akt in-cell Western assay, Table 1

| IC50 [3] [µM] | IC50 [4] [µM] | Compound | further results |
| --- | --- | --- | --- |
| – | – | Cc1cccc(C(=O)n2nc(N)nc2Nc2ccc3c(c2)N(C(=O)OC(C)(C)C)CCO3)c1 [compound 167] | IC50 (Table 6, Hela cells, Axl antibody cross-linking stimulation, phospho-Akt chemiluminescence): > 20 µM |
| – | – | CC(C)Oc1cccc(C(=O)n2nc(Nc3ccc(OCCN4CCCCC4)cc3)nc2N)c1 [compound 168, 5-amino-1-(3-(iso-propoxy)phenyl)carbonyl-3-[4-[2-(piperidin-1-yl)ethoxy]phenylamino]-1H-1,2,4-triazole] | IC50 [1]: < 1 µM |
| – | – | CC(C)Oc1cccc(C(=O)n2nc(Nc3ccc(OCCN4CCOCC4)cc3)nc2N)c1 [compound 169, 5-amino-1-(3-(iso-propoxy)phenyl)carbonyl-3-[4-[2-(morpholin-4-yl)ethoxy]phenylamino]-1H-1,2,4-triazole] | IC50 [1]: < 1 µM |
| – | – | CC(C)Oc1cccc(C(=O)n2nc(Nc3cccc(-c4cnco4)c3)nc2N)c1 [compound 170, 5-amino-1-(3-(iso-propoxy)phenyl)carbonyl-3-[3-(1,3-oxazol-5-yl)phenylamino]-1H-1,2,4-triazole] | IC50 [1]: 1 to 10 µM |
| – | – | CC(C)Oc1cncc(C(=O)n2nc(Nc3ccc(OCCN4CCOCC4)cc3)nc2N)c1 [compound 171, 5-amino-1-(3-(iso-propoxy)pyridin-5-yl)carbonyl-3-[4-[2-(morpholin-4-yl)ethoxy]phenylamino]-1H-1,2,4-triazole] | IC50 [2]: 1 to 10 µM |
| > 20 | – | COc1ccc(Nc2nc(N)n(C(=O)Nc3ccc(Cl)cc3)n2)cc1 [compound 172, 5-amino-N-(4-chlorophenyl)-3-[4-(methoxy)phenylamino]-1H-1,2,4-triazole-1-carboxamide] | – |
| > 20 | – | CC(=O)N(C)c1ccc(Nc2nc(N)n(C(=O)Nc3ccc(Cl)cc3)n2)cc1 [compound 174, 3-[4-(acetyl(methyl)amino)phenyl]amino-5-amino-N-(4-chlorophenyl)-1H-1,2,4-triazole-1-carboxamide] | – |
| 1 to 10 | – | CC(=O)N(C)c1ccc(Nc2nc(N)n(C(=O)Nc3ccc4c(c3)OCO4)n2)cc1 [compound 175, 3-[4-(acetyl(methyl)amino)phenyl]amino-5-amino-N-(1,3-benzodioxol-5-yl)-1H-1,2,4-triazole-1-carboxamide] | – |
| – | > 20 | CC(=O)N(C)c1ccc(Nc2nc(N)nn2C(=O)Nc2ccc3c(c2)OCO3)cc1 [compound 176, 5-[4-(acetyl(methyl)amino)phenyl]amino-3-amino-N-(1,3-benzodioxol-5-yl)-1H-1,2,4-triazole-1-carboxamide] | – |
| > 20 | – | CC(=O)N(C)c1ccc(Nc2nc(N)n(C(=O)NC3CCCC3)n2)cc1 [compound 177, 3-[4-(acetyl(methyl)amino)phenyl]amino-5-amino-N-cyclopentyl-1H-1,2,4-triazole-1-carboxamide] | – |
| – | > 20 | CC(=O)N(C)c1ccc(Nc2nc(N)nn2C(=O)NC2CCCC2)cc1 [compound 178, 5-[4-(acetyl(methyl)amino)phenyl]amino-3-amino-N-cyclopentyl-1H-1,2,4-triazole-1-carboxamide] | – |
| 1 to 10 | – | CC(=O)N(C)c1ccc(Nc2nc(N)n(C(=O)Nc3ccc(C(C)C)cc3)n2)cc1 [compound 179, 3-[4-(acetyl(methyl)amino)phenyl]amino-5-amino-N-(4-(iso-propyl)phenyl)-1H-1,2,4-triazole-1-carboxamide] | – |
| – | 1 to 10 | Cc1ccc(NC(=O)n2nc(N)nc2Nc2ccc(OCCN3CCCCC3)cc2)cc1 [compound 183, 3-amino-N-(4-(methyl)phenyl)-5-[4-[2-(piperidin-1-yl)ethoxy]phenylamino]-1H-1,2,4-triazole-1-carboxamide] | – |
| – | 1 to 10 | COc1ccc(NC(=O)n2nc(N)nc2Nc2ccc(OCCN3CCCCC3)cc2)cc1 [compound 184, 3-amino-N-(4-(methoxy)phenyl)-5-[4-[2-(piperidin-1-yl)ethoxy]phenylamino]-1H-1,2,4-triazole-1-carboxamide] | – |
| > 20 | – | CC(=O)N(C)c1ccc(Nc2nc(N)n(C(=O)NC3CCCCC3)n2)cc1 [compound 185, 3-[4-(acetyl(methyl)amino)phenyl]amino-5-amino-N-cyclohexyl-1H-1,2,4-triazole-1-carboxamide] | – |
| – | 1 to 10 | Cc1cccc(NC(=O)n2nc(N)nc2Nc2ccc(OCCN3CCCCC3)cc2)c1 [compound 187, 3-amino-N-(3-(methyl)phenyl)-5-[4-[2-(piperidin-1-yl)ethoxy]phenylamino]-1H-1,2,4-triazole-1-carboxamide] | – |
| – | 1 to 10 | COc1cc(NC(=O)n2nc(N)nc2Nc2ccc(OCCN3CCCCC3)cc2)cc(OC)c1 [compound 188, 3-amino-N-(3,5-dimethoxyphenyl)-5-[4-[2-(piperidin-1-yl)ethoxy]phenylamino]-1H-1,2,4-triazole-1-carboxamide] | – |
| – | 1 to 10 | Nc1nc(Nc2ccc(OCCN3CCCCC3)cc2)n(C(=O)NC2CCCCC2)n1 [compound 189, 3-amino-N-cyclohexyl-5-[4-[2-(piperidin-1-yl)ethoxy]phenylamino]-1H-1,2,4-triazole-1-carboxamide] | – |
| – | > 20 | Nc1nc(Nc2ccc(OCCN3CCCCC3)cc2)n(C(=O)NC2CCCC2)n1 [compound 190, 3-amino-N-cyclopentyl-5-[4-[2-(piperidin-1-yl)ethoxy]phenylamino]-1H-1,2,4-triazole-1-carboxamide] | – |
| – | – | CC(C)Oc1ccc(C(=O)n2nc(N)nc2Nc2ccc(OCCN3CCCC3)cc2)cc1 [compound 191, 3-amino-1-(4-iso-propoxyphenyl)carbonyl-5-[4-[2-(pyrrolidin-1-yl)ethoxy]phenylamino]-1H-1,2,4-triazole] | IC50 [5]: 1 to 10 µM |
| – | – | CC(C)Oc1ccc(C(=O)n2nc(N)nc2Nc2ccc(N3CCCCC3)cc2)cc1 [compound 192, 3-amino-1-(4-(iso-propoxy)phenyl)carbonyl-5-[4-(piperidin-1-yl)phenylamino]-1H-1,2,4-triazole] | IC50 [5]: 10 to 20 µM |
| – | 1 to 10 | Nc1nc(Nc2ccc(OCCN3CCCCC3)cc2)n(C(=O)Nc2ccc3c(c2)OCO3)n1 [compound 193, 3-amino-N-(1,3-benzodioxol-5-yl)-5-[4-[2-(piperidin-1-yl)ethoxy]phenylamino]-1H-1,2,4-triazole-1-carboxamide] | – |
| > 20 | – | N#Cc1ccc(NC(=O)n2nc(Nc3ccc(OCCN4CCCCC4)cc3)nc2N)cc1 [compound 194, 5-amino-N-(4-cyanophenyl)-3-[4-[2-(piperidin-1-yl)ethoxy]phenylamino]-1H-1,2,4-triazole-1-carboxamide] | – |
| – | – | Nc1nc(Nc2ccc(OCCN3CCCC3)cc2)nn1C(=O)C1CC2C=CC1C2 (stereo not shown) [compound 196, 5-amino-1-[2-(bicyclo[2.2.1]hept-5-ene)carbonyl]-3-[4-[2-(pyrrolidin-1-yl)ethoxy]phenylamino]-1H-1,2,4-triazole] | IC50 [2]: > 20 µM |
| – | – | CN(C)c1cccc(C(=O)n2nc(Nc3ccc(OCCN4CCCC4)cc3)nc2N)c1 [compound 197, 5-amino-1-(3-(dimethylamino)phenyl)carbonyl-3-[4-[2-(pyrrolidin-1-yl)ethoxy]phenylamino]-1H-1,2,4-triazole] | IC50 [6]: > 20 µM |
| – | – | COc1ccc(C(=O)n2nc(Nc3ccc(OCCN4CCCC4)cc3)nc2N)cc1OC [compound 198, 5-amino-1-(3,4-(dimethoxy)phenyl)carbonyl-3-[4-[2-(pyrrolidin-1-yl)ethoxy]phenylamino]-1H-1,2,4-triazole] | IC50 [6]: > 20 µM |
| > 20 | – | Cc1cc(C)cc(NC(=O)n2nc(Nc3ccc(OCCN4CCCCC4)cc3)nc2N)c1 [compound 199, 5-amino-N-(3,5-(dimethyl)phenyl)-3-[4-[2-(piperidin-1-yl)ethoxy]phenylamino]-1H-1,2,4-triazole-1-carboxamide] | – |
| – | – | Nc1nc(Nc2ccc(OCCN3CCCC3)cc2)nn1C(=O)C1CC2CCC1C2 (stereo not shown) [compound 200, 5-amino-1-[2-(bicyclo[2.2.1]heptane)carbonyl]-3-[4-[2-(pyrrolidin-1-yl)ethoxy]phenylamino]-1H-1,2,4-triazole] | IC50 [2]: > 20 µM |

| Compound | IC50 [3] [µM] | IC50 [4] [µM] | further results |
| --- | --- | --- | --- |
| CCCCOc1ccc(NC(=O)n2nc(Nc3ccc(N(C)C(C)=O)cc3)nc2N)cc1 [compound 180, 3-[4-(acetyl(methyl)amino)phenyl]amino-5-amino-N-(4-(butoxy)phenyl)-1H-1,2,4-triazole-1-carboxamide] | 1 to 10 | – | – |
| CCCCOc1ccc(NC(=O)n2nc(N)nc2Nc2ccc(OCCN3CCCCC3)cc2)cc1 [compound 182, 3-amino-N-(4-(butoxy)phenyl)-5-[4-[2-(piperidin-1-yl)ethoxy]phenylamino]-1H-1,2,4-triazole-1-carboxamide] | – | > 20 | – |
| CC(C)(C)OC(=O)n1nc(Nc2ccc(N3CCCCC3)cc2)nc1N [compound 201, 5-amino-3-[4-(piperidin-1-yl)phenylamino]-1-(tert-butoxycarbonyl)-1H-1,2,4-triazole] | > 20 | – | – |
